Measured values reported in US12540161B2, “Linkers” (BicycleTx Limited, priority 2020, dated 2026).
Several values for one entry are separate records, joined by “and”; a condition that tells them apart may be missing. Equal values may be shown once.

Key:
HT1080 cells = conditions: 1 mg/kg and 3 mg/kg
Protocol: For Cell-Derived Xenograft (CDX) models, mice (balb/c nude, female, 18-23 g at study start) were inoculated with HT1080 cells (5.0×10^6 cells/mouse in 0.2 ml PBS to the right flank). Animals were randomized when the average tumour volume reached the pre-designated start size. Group size is n=4. All studies included a vehicle-treated control.
Dosing was conducted by intravenous bolus. Tumor volume was measured in two dimensions using a caliper, and the volume was expressed in mm^3 using the formula: V=0.5 a×b^2 where a and b are the long and short diameters of the tumor, respectively.

in vitro [1] = conditions: rat, plasma
in vitro [2] = conditions: mouse, plasma
in vitro [3] = conditions: human, plasma
[4] = Plasma stability analysis, mouse plasma; conditions: plasma, BTCs
in vitro [5] = conditions: human, plasma, pH 7.4
Protocol: (§1) Pooled frozen plasma was thawed in a water bath at 37° C. Plasma was centrifuged at 4000 rpm for 5 min and the clots were removed if any. The pH will be adjusted to 7.4±0.1 if required. 1 mM stock solution was prepared with DMSO. Propantheline (positive control) was prepared by making a 100 μM working solution by diluting 5 μL of the stock solution (10 mM) with 495 μL ultra pure water. 100 μM working solutions of test compounds were made up by diluting 10 μL of the stock solution (1 mM) with 90 μL DMSO. 98 μL of blank plasma was spiked with 2 μL of dosing solution (100 μM) to achieve 2 μM of the final concentration in duplicate and samples were incubated at 37° C. in a water bath. At each time point (0, 1, 2, 4, 6 and 24 hr), 400 μL of 200 ng/mL tolbutamide and labetalol in 100% MeOH was added and mixed thoroughly to precipitate proteins. Sample plates were centrifuged at 4,000 rpm for 15 min. An aliquot of supernatant (150 μL) was transferred from each well before submitting for LC-MS/MS analysis.
(§2) The % remaining test compound after incubation in plasma was calculated using following equation: Remaining=100×(PAR at appointed incubation time/PAR at T0 time)
(§3) where PAR is the peak area ratio of analyte versus internal standard (IS).
(§4) The appointed incubation time points are T0 (0 hr), Tn (n=0, 1, 2, 4, 6, 24 hr). The half-life (T½) was calculated from a log linear plot of concentration versus time.
(§5) When the % remaining value at the maximal incubation time, which was 24 hr in this study, was higher than 75%, it is considered to be within the acceptable experimental variation.

in vitro [6] = conditions: rat, plasma, pH 7.4
Protocol: as §1, §2, §3, §4, §5

in vitro [7] = conditions: cynomolgus monkey, plasma
HT1080 xenograft = experiment: In vivo efficacy study in the HT1080 xenograft model in BALB/c nude mice (Example 6); conditions: for Tumor volume, day 0 / Tumor volume, day 2 / Tumor volume, day 4 / Tumor volume, day 6 / Tumor volume, day 9 / T/C (%) / TGI (%) / Tumor volume, day 11: iv, qw; for Tumor volume, day 0: day 0 after the start of treatment; for Tumor volume, day 0 / Tumor volume, day 2 / Tumor volume, day 4 / Tumor volume, day 6 / Tumor volume, day 9 / Tumor volume, day 11: mean ± SEM; for T/C (%) / TGI (%) / Tumor volume, day 11: day 11
Protocol: • Species: Mus Musculus • Strain: BALB/c nude • Age: 6-8 weeks • Sex: female • Body weight: 18-22 g • Number of animals: 35 mice plus spare • Animal supplier: Shanghai Lingchang Biotechnology Experimental Animal Co., LTD. Housing Condition • The mice were kept in individual ventilation cages at constant temperature and humidity with 5 animals in each cage. • Temperature: 20˜26° C. • Humidity 40-70%. • Cages: Made of polycarbonate. The size is 375 mm×215 mm×180 mm.
The HT1080 cells were maintained in EMEM medium supplemented with 10% heat inactivated fetal bovine serum at 37° C. in an atmosphere of 5% CO2 in air. The tumor cells were routinely sub-cultured twice weekly. The cells growing in an exponential growth phase were harvested and counted for tumor inoculation.
Each mouse was inoculated subcutaneously at the right flank with HT1080 tumor cells (5×10^6) in 0.2 ml of PBS for tumor development. Animals were randomized when the average tumor volume reached 320 mm^3 for efficacy study. The test article administration and the animal numbers in each group were shown in the experimental design table.
All the procedures related to animal handling, care and the treatment in the study were performed according to the guidelines approved by the Institutional Animal Care and Use Committee (IACUC) of WuXi AppTec, following the guidance of the Association for Assessment and Accreditation of Laboratory Animal Care (AAALAC). At the time of routine monitoring, the animals were checked for any effects of tumor growth and treatments on normal behavior such as mobility, food and water consumption (by observation only), body weight gain/loss, eye/hair matting and any other abnormal effect as stated in the protocol. Death and observed clinical signs were recorded on the basis of the numbers of animals within each subset.
The major endpoint was to see if the tumor growth could be delayed or mice could be cured. Tumor volume was measured three times weekly in two dimensions using a caliper, and the volume was expressed in mm^3 using the formula: V=0.5 a×b^2 where a and b are the long and short diameters of the tumor, respectively. The tumor size was then used for calculations of T/C value. The T/C value (in percent) is an indication of antitumor effectiveness; T and C are the mean volumes of the treated and control groups, respectively, on a given day.
TGI was calculated for each group using the formula: TGI (%)=[1−(Ti−T0)/(Vi−Vo)]×100; Ti is the average tumor volume of a treatment group on a given day, T0 is the average tumor volume of the treatment group on the day of treatment start, Vi is the average tumor volume of the vehicle control group on the same day with Ti, and V0 is the average tumor volume of the vehicle group on the day of treatment start.
Summary statistics, including mean and the standard error of the mean (SEM), were provided for the tumor volume of each group at each time point.
Statistical analysis of difference in tumor volume among the groups was conducted on the data obtained at the best therapeutic time point after the final dose.
A one-way ANOVA was performed to compare tumor volume among groups, and when a significant F-statistics (a ratio of treatment variance to the error variance) was obtained, comparisons between groups were carried out with Games-Howell test. A two-tailed T test was performed to compare tumor volume between two groups. All data were analyzed using GraphPad 5.0. P<0.05 was considered to be statistically significant.

[8] = 7 animals of group 5 and 6 treated with BCY10984 45 μM, average starting tumor size 1291 mm^3

Structure (SMILES): CC[C@H](C)[C@@H]([C@@H](CC(=O)N1CCC[C@H]1[C@H](OC)[C@@H](C)C(=O)N[C@H](C)[C@@H](O)c1ccccc1)OC)N(C)C(=O)[C@@H](NC(=O)[C@H](C(C)C)N(C)C(=O)OCc1ccc(NC(=O)[C@H](CCCNC(N)=O)NC(=O)[C@H](Cc2cccc3ccccc23)NC(=O)[C@H](CCC(=O)O)NC(=O)Cn2cc(CCC(=O)NCCC(=O)N(C)CC(=O)N(C)CC(=O)N(C)CC(=O)N(C)CC(=O)N(C)CC(=O)N(C)CC(=O)N(C)CC(=O)N(C)CC(=O)N(C)CC(=O)N(C)CC(=O)N[C@@H](C)C(=O)N[C@H]3CN(C)Cc4cc5cc(c4)CN(C)C[C@@H](C(N)=O)NC(=O)[C@H](C(C)(C)C)NC(=O)[C@H](CC(=O)O)NC(=O)[C@H](Cc4ccc(O)cc4)NC(=O)[C@H](Cc4ccccc4)NC(=O)[C@H](CC(=O)O)NC(=O)[C@H](CCC(=O)O)NC(=O)[C@H](CSC5)NC(=O)[C@@H](C)NC(=O)[C@H](Cc4cccc5ccccc45)NC(=O)[C@H](CCC(=O)O)NC(=O)[C@H](CC(N)=O)NC(=O)[C@@H](C)NC3=O)nn2)cc1)C(C)C [BCY10984, MMAE-PAB-(Cit-1Nal-Glu)-BCY3900]
- Body weights of the animals (HT1080 cells): not affected
- fraction unbound (in vitro [1]; PPB (% Unbound), rat (Table 9)): 0.04
- fraction unbound (in vitro [1]; Plasma protein binding (% Unbound) Rat): 0.035
- fraction unbound (in vitro [2]): 0.002
- fraction unbound (in vitro [3]): 0.031
- half-life at 2 μM ([4]; pH 7.4, Mouse plasma t1/2 (EDTA), EDTA anticoagulant): > 3470 min
- half-life at 2 μM ([4]; pH 7.4, Mouse plasma t1/2 (Herparin), heparin anticoagulant): 2850 min
- half-life at 2 μM (in vitro [5]): > 2.41 days
- half-life at 2 μM (in vitro [6]): 2.24 days
- fraction unbound (in vitro [7]): 0.092
- anti-tumor efficacy compared with BCY12951 (HT1080 xenograft; 5 μM): comparable anti-tumor efficacy
- anti-tumor activity (HT1080 xenograft; 5 μM, 15 μM and 45 μM qw): dose-dependent anti-tumor activity
- Tumor volume, day 0 (HT1080 xenograft; 5 μM): 320 ± 48 mm^3
- Tumor volume, day 2 (HT1080 xenograft; 5 μM): 508 ± 49 mm^3
- Tumor volume, day 4 (HT1080 xenograft; 5 μM): 681 ± 64 mm^3
- Tumor volume, day 6 (HT1080 xenograft; 5 μM): 750 ± 50 mm^3
- Tumor volume, day 9 (HT1080 xenograft; 5 μM): 958 ± 53 mm^3
- T/C (%) (HT1080 xenograft; 5 μM): 72.6%
- TGI (%) (HT1080 xenograft; 5 μM): 33.6%
- Tumor volume, day 11 (HT1080 xenograft; 5 μM): 1257 mm^3 and 1257 ± 95 mm^3
- anti-tumor efficacy compared with BCY12951 at the same molar dosage (HT1080 xenograft; 15 μM and 45 μM): more potent efficacy
- Tumor volume, day 0 (HT1080 xenograft; 15 μM): 321 ± 43 mm^3
- Tumor volume, day 2 (HT1080 xenograft; 15 μM): 519 ± 76 mm^3
- Tumor volume, day 4 (HT1080 xenograft; 15 μM): 428 ± 88 mm^3
- Tumor volume, day 6 (HT1080 xenograft; 15 μM): 378 ± 128 mm^3
- Tumor volume, day 9 (HT1080 xenograft; 15 μM): 304 ± 112 mm^3
- T/C (%) (HT1080 xenograft; 15 μM): 16.6%
- TGI (%) (HT1080 xenograft; 15 μM): 102.3%
- Tumor volume, day 11 (HT1080 xenograft; 15 μM): 288 mm^3 and 288 ± 126 mm^3
- tumor eradication (HT1080 xenograft; 45 μM qw): eradicated the tumors completely on day 16
- Tumor volume, day 0 (HT1080 xenograft; 45 μM): 320 ± 32 mm^3
- Tumor volume, day 2 (HT1080 xenograft; 45 μM): 489 ± 68 mm^3
- Tumor volume, day 4 (HT1080 xenograft; 45 μM): 285 ± 90 mm^3
- Tumor volume, day 6 (HT1080 xenograft; 45 μM): 139 ± 46 mm^3
- Tumor volume, day 9 (HT1080 xenograft; 45 μM): 29 ± 10 mm^3
- T/C (%) (HT1080 xenograft; 45 μM): 0.9%
- TGI (%) (HT1080 xenograft; 45 μM): 121.6%
- Tumor volume, day 11 (HT1080 xenograft; 45 μM): 15 mm^3 and 15 ± 6 mm^3
- tumor response after the first dosing (HT1080 xenograft; [8]): sudden tumor regression
- tumor response after the second dosing (HT1080 xenograft; [8]): all tumors were eradicated completely
- tumor growth (FIG. 17) (HT1080 xenograft; mice from Group 5 and 6 dosed with 45 μM BCY10984): potent inhibition of tumor growth
